# Results published in patent US20230265151A1, “GIP/GLP1 CO-AGONIST COMPOUNDS” (priority 2020, published 2023).
# Key:
# Assay type in all cases: cell-based
# hGCGR = target: T1, hGCGR (Homo sapiens, UniProt P47871); assay: Functional cAMP formation (HTRF) in HEK-293 clonal cells expressing hGCGR, 0.1% bovine casein, without or with 1.0% human serum albumin; settings: hGCGR EC50, nM (SEM, n), cAMP, 37° C.
# T1 construct: expressed in transfected cells
# Summary of the method: (§1)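 Cells were stimulated with peptide for 30 min at 37° C, then lysed in buffer carrying cAMP-d2 and anti-cAMP Eu3+-cryptate for a competitive HTRF read after at least 60 min at room temperature. The 665/620 nm ratio was converted to nM cAMP against a standard curve.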
# hGIPR = target: T2, hGIPR (Homo sapiens, UniProt P48546); assay: Functional cAMP formation (HTRF) in HEK-293 clonal cells expressing hGIPR, 0.1% bovine casein, without or with 1.0% human serum albumin; settings: hGIPR EC50, nM (SEM, n), cAMP, 37° C., 0.1% bovine casein (no human serum albumin); geometric mean
# T2 construct: expressed in transfected cells
# T2 sequence (P48546 22-466): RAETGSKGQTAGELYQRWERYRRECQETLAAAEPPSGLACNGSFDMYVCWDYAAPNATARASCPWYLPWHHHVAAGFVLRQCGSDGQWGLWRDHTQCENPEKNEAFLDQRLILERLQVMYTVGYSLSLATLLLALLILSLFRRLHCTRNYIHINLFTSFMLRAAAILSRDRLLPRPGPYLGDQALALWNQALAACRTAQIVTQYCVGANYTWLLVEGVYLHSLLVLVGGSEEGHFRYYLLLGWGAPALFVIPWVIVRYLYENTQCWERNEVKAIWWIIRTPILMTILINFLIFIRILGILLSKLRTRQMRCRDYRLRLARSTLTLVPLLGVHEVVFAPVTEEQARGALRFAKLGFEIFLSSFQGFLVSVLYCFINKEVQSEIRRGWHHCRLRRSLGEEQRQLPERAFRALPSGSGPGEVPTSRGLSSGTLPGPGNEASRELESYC
# Summary of the method: as §1
# hGLP-1R = hGLP-1R (Homo sapiens, UniProt P43220); assay: Functional cAMP formation (HTRF) in HEK-293 clonal cells expressing hGLP-1R, 0.1% bovine casein, without or with 1.0% human serum albumin; parameters: expressed in transfected cells
# Sequence of hGLP-1R (P43220 24-463): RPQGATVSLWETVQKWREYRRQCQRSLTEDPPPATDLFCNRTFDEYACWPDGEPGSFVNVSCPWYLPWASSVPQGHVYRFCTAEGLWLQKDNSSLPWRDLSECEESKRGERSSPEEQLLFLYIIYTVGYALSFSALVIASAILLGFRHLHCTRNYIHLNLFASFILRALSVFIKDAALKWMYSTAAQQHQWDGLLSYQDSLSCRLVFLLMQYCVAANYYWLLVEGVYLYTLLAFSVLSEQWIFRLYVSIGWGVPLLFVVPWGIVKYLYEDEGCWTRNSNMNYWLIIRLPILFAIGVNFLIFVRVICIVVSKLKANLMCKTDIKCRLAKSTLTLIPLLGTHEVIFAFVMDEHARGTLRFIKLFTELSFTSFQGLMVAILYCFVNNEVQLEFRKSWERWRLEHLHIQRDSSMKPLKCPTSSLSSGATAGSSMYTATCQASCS
# Summary of the method: as §1
# T1 sequence (P47871 26-477): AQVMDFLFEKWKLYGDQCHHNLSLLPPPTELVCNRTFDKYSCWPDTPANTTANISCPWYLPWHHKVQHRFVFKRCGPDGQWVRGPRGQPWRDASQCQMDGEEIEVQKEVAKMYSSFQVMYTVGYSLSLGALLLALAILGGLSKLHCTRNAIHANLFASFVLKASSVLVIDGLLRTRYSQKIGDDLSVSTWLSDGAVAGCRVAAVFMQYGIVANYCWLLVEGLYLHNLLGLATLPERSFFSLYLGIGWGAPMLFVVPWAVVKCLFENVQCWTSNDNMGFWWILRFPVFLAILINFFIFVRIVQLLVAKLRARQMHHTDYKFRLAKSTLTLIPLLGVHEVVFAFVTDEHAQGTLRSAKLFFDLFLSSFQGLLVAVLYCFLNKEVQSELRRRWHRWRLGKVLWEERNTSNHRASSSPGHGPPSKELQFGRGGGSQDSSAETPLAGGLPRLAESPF
compound,measurement,setting,value
CC[C@H](C)[C@H](NC(=O)[C@H](CCCN)NC(=O)[C@H](CC(=O)O)NC(=O)[C@H](CC(C)C)NC(=O)[C@](C)(CC(C)C)NC(=O)[C@@H](NC(=O)C(C)(C)NC(=O)[C@H](Cc1ccncc1)NC(=O)[C@H](CC(=O)O)NC(=O)[C@H](CO)NC(=O)[C@@H](NC(=O)[C@](C)(Cc1ccccc1F)NC(=O)[C@@H](NC(=O)CNC(=O)[C@H](CCC(=O)O)NC(=O)C(C)(C)NC(=O)[C@@H](N)Cc1ccc(O)cc1)[C@@H](C)O)[C@@H](C)O)[C@@H](C)CC)C(=O)N[C@@H](C)C(=O)N[C@@H](CCC(N)=O)C(=O)NC(C)(C)C(=O)N[C@@H](CCCCNC(=O)COCCOCCNC(=O)COCCOCCNC(=O)CC[C@H](NC(=O)CCCCCCCCCCOc1ccc(C(=O)O)cc1)C(=O)O)C(=O)N[C@@H](Cc1ccccc1)C(=O)N[C@H](C(=O)N[C@H](CCC(=O)O)C(=O)N[C@@](C)(Cc1ccc(O)cc1)C(=O)N[C@@H](CC(C)C)C(=O)N[C@H](C(=O)N[C@@H](CCCCNC(=O)COCCOCCNC(=O)COCCOCCNC(=O)CC[C@H](NC(=O)CCCCCCCCCCOc1ccc(C(=O)O)cc1)C(=O)O)C(=O)NCC(=O)NCC(=O)N1CCC[C@H]1C(=O)N[C@@H](CO)C(=O)N[C@@H](CO)C(=O)NCC(=O)N[C@@H](C)C(=O)N1CCC[C@H]1C(=O)N1CCC[C@H]1C(=O)N1CCC[C@H]1C(=O)N[C@@H](CO)C(N)=O)[C@@H](C)CC)[C@@H](C)CC [Example 331],EC50,"hGCGR; 0.1% bovine casein (no human serum albumin), geometric mean",> 9950 nM
same,EC50,"hGCGR; 0.1% bovine casein and 1.0% human serum albumin, geometric mean (SEM, n)",> 9950 nM
same,EC50,hGIPR,0.0113 nM
same,Emax,"hGLP-1R; HEK293, read-out: hGLP-1R Emax, % ± SEM, cAMP, 37° C., 0.1% bovine casein and 1.0% human serum albumin, percent of maximal response to GLP-1(7-36)NH2",114%
same,EC50,"hGLP-1R; hGLP-1R EC50, nM (SEM, n), cAMP, 37° C., 0.1% bovine casein (no human serum albumin), geometric mean",0.436 nM
